Measurements reported in patent US8957074B2 (Novartis AG, priority 2010, dated 2015).
Like-named read-outs stand apart in the source and are kept apart here.

How the values were obtained:
CDK4/cyclin D1 = CDK4/cyclin D1 (Homo sapiens (Human), UniProt P11802); assay: CDK4/cyclin D1 enzymatic activity assay (TR-FRET, phosphorylation of pRb at Ser780); format: biochemical; conditions: 0.3 nM CDK4/cyclin D1, 150 nM biotin-pRb (773-924), 3 μM ATP, 60 min at 22° C.; read-out: Biochemical CDK4 enzyme IC50
Summary of the method: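 Phosphorylation at pRb Ser780, detected by TR-FRET, gave IC50s and kinetics. Enzyme: baculovirus/Sf21-expressed human CDK4/cyclin D1. ATP at 3 μM initiated the reaction; EDTA (pH 8.0) stopped it after 60 min at 22° C.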

[1] = tested on: phosphorylation of pRb at the Ser780 site in JeKo-1 mantle cell lymphoma cells; assay: CDK4 cellular assay: ELISA of pRb phosphorylation at Ser780 in JeKo-1 cells; format: cell-based; conditions: Homo sapiens
CDK1/cyclin B = CDK1/cyclin B (Homo sapiens (Human), UniProt P06493); assay: CDK1/cyclin B enzymatic activity assay (IMAP-FP); format: biochemical; conditions: 100 nM Tamra Histone-H1 peptide, 20 μM ATP, 120 min at room temperature, read-out: Biochemical CDK1 enzyme IC50
Source text: CDK1/Cyclin B Enzymatic Activity Assay
A 384-well microtiter IMAP-FP™ (Molecular Devices Trade Mark Technology) endpoint assay was used for CDK1/cyclin B kinase activity measurements. The same assay was used for IC50 determination of small molecule inhibitors.

[2] = JeKo-1, JeKo-1 cells, p-pRb % inhibition adjusted with total pRb levels, read-out: Normalized cellular ppRb inhibition IC50
[3] = JeKo-1, JeKo-1 cells, p-pRb Ser780 ELISA, non-normalized, read-out: Cellular ppRb inhibition IC50
[4] = JeKo-1, read-out: Cellular ppRb inhibition IC50
[5] = JeKo-1, read-out: Normalized cellular ppRb inhibition IC50
[6] = JeKo-1 cells, p-pRb % inhibition adjusted with total pRb levels, read-out: Normalized cellular ppRb inhibition IC50
[7] = JeKo-1 cells, p-pRb Ser780 ELISA, non-normalized, read-out: Cellular ppRb inhibition IC50

CDK1/cyclin B, sequence (P06493 whole entry, species assumed): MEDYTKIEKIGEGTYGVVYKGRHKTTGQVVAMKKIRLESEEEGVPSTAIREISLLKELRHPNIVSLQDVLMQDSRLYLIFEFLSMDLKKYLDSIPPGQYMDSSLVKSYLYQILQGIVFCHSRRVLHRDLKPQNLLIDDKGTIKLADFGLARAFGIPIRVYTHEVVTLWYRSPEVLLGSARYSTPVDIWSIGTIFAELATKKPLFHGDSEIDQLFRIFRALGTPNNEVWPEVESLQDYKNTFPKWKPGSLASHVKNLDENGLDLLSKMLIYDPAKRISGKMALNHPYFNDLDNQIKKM
CDK1/cyclin B, sequence (P14635 whole entry partner, species assumed): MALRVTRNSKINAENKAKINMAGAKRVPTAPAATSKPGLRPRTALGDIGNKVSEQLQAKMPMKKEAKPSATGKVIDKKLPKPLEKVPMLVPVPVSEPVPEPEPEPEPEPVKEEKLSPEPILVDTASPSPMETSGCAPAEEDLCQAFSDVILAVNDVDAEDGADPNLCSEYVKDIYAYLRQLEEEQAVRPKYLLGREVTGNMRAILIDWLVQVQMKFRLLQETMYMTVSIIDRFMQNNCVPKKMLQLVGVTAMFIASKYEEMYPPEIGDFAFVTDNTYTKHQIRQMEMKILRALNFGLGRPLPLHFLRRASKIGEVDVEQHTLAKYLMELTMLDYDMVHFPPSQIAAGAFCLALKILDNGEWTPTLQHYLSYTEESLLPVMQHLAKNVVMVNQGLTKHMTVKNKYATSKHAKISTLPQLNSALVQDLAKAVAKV
CDK4/cyclin D1, sequence (P11802 whole entry): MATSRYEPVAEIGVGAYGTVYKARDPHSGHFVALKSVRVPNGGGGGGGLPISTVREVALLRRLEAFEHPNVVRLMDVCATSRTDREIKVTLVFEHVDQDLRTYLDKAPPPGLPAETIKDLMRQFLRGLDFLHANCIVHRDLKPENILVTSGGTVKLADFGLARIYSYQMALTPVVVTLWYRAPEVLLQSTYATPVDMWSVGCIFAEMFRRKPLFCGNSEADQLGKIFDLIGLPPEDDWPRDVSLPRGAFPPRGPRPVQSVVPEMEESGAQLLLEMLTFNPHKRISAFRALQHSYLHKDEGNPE
CDK4/cyclin D1, sequence (P24385 whole entry partner): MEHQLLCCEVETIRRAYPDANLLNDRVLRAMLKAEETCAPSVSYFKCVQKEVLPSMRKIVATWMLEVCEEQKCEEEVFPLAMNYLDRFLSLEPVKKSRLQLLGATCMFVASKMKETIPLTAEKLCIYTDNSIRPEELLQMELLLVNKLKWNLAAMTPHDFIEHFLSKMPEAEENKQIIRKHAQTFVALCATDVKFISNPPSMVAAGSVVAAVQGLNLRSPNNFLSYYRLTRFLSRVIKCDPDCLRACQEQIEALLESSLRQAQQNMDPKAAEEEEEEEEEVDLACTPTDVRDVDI

SMILES | IC50 (CDK4/cyclin D1) | IC50 (CDK1/cyclin B; […] CDK1/cyclin B) | IC50 [1, 2] | IC50 [1, 3] | IC50 [1, 4] | IC50 [1, 5] | IC50 [1, 6] | IC50 [1, 7] | IC50 (CDK1/cyclin B; 0.25 nM CDK1/cyclin B)
CN(C)C(=O)c1cc2cnc(Nc3ccc(N4CC5CCC(C4)N5)nn3)nc2n1C1CCCCC1 [Example 126, 7-Cyclohexyl-2-[6-(3,8-diaza-bicyclo[3.2.1]oct-3-yl)-pyridazin-3-ylamino]-7H-pyrrolo[2,3-d]pyrimidine-6-carboxylic acid dimethylamide] | 10 to 31 nM | > 15000 nM | 45 to 49 nM | 23 to 32 nM | – | – | – | – | –
CN(C)C(=O)c1cc2cnc(Nc3ccc(N4C[C@H]5CC[C@@H](CC4=O)N5)cn3)nc2n1-c1ccccc1 [Example 130, 2-[5-((1R,6S)-4-oxo-3,9-diaza-bicyclo[4.2.1]non-3-yl)-pyridin-2-ylamino]-7-phenyl-7H-pyrrolo[2,3-d]pyrimidine-6-carboxylic acid dimethylamide] | 9 nM | > 15000 nM | 22 to 45 nM | 19 to 26 nM | – | – | – | – | –
CN(C)C(=O)c1cc2cnc(Nc3ccc(N4CCN5CCCC5C4)cn3)nc2n1C1CCCC1 (centres unmarked) [Example 116, 7-cyclopentyl-2-(5-(hexahydropyrrolo[1,2-a]pyrazin-2(1H)-yl)pyridin-2-ylamino)-N,N-dimethyl-7H-pyrrolo[2,3-d]pyrimidine-6-carboxamide] | 110 nM | > 15000 nM | – | – | 604 nM | 605 nM | – | – | –
CN(C)C(=O)c1cc2cnc(Nc3ccc(N4C[C@H]5CC[C@@H](CC4=O)N5)cn3)nc2n1C1CCCC1 [Example 123, 7-Cyclopentyl-2-[5-((1R,6S)-4-oxo-3,9-diaza-bicyclo[4.2.1]non-3-yl)-pyridin-2-ylamino]-7H-pyrrolo[2,3-d]pyrimidine-6-carboxylic acid dimethylamide] | 3 nM | 29300 nM | 8 to 99 nM | 5 to 16 nM | – | – | – | – | –
CN(C)C(=O)c1cc2cnc(Nc3ccc(N4CC5CCC(CC4=O)N5)cn3)nc2n1-c1ccccc1 (centres unmarked) [Example 128, 2-[5-(4-oxo-3,9-diaza-bicyclo[4.2.1]non-3-yl)-pyridin-2-ylamino]-7-phenyl-7H-pyrrolo[2,3-d]pyrimidine-6-carboxylic acid dimethylamide] | 9 nM | > 15000 nM | 140 nM | 81 nM | – | – | – | – | –
CN(C)C(=O)c1cc2cnc(Nc3ccc(C(=O)N4CC5CCC(C4)N5)cn3)nc2n1C1CCCCC1 [Example 66, 7-Cyclohexyl-2-[5-(3,8-diaza-bicyclo[3.2.1]octane-3-carbonyl)-pyridin-2-ylamino]-7H-pyrrolo[2,3-d]pyrimidine-6-carboxylic acid dimethylamide] | 4 to 7 nM | > 15000 nM | 41 nM | 38 nM | – | – | – | – | –
CN1C[C@@H]2CC(=O)N(c3ccc(Nc4ncc5cc(C(=O)N(C)C)n(C6CCCCCC6)c5n4)nc3)C[C@@H]2C1 [Example 93, 7-cycloheptyl-N,N-dimethyl-2-(5-((3aS,7aR)-2-methyl-6-oxotetrahydro-1H-pyrrolo[3,4-c]pyridin-5(6H,7H,7aH)-yl)pyridin-2-ylamino)-7H-pyrrolo[2,3-d]pyrimidine-6-carboxamide] | < 5 nM | > 15000 nM | 20 nM | 8 nM | – | – | – | – | –
CN(C)C(=O)c1cc2cnc(Nc3ccc(N4CCCC5(CCNCC5)C4=O)cn3)nc2n1C1CCCC1 [Example 114, 7-Cyclopentyl-2-[5-(1-oxo-2,9-diaza-spiro[5,5]undec-2-yl)-pyridin-2-ylamino]-7H-pyrrolo[2,3-d]pyrimidine-6-carboxylic acid dimethylamide] | 190 nM | – | – | – | 1350 nM | 7100 nM | – | – | > 15000 nM
CN(C)C(=O)c1cc2cnc(Nc3ccc(N4CC5(CC6CCC(C5)N6)OC4=O)cn3)nc2n1C1CCCC1 [Example 101, 7-cyclopentyl-N,N-dimethyl-2-(5-((1R,3r, 5S)-2′-oxo-8-azaspiro[bicyclo[3.2.1]octane-3,5′-oxazolidine]-3′-yl)pyridin-2-ylamino)-7H-pyrrolo[2,3-d]pyrimidine-6-carboxamide] | 20 nM | > 15000 nM | – | – | – | – | 110 nM | 58 nM | –
CN(C)C(=O)c1cc2cnc(Nc3ccc(C(=O)N4CC5CCC(C4)N5)cn3)nc2n1C(C)(C)C [Example 58, 7-tert-Butyl-2-[5-(3,8-diaza-bicyclo[3.2.1]octane-3-carbonyl)-pyridin-2-ylamino]-7H-pyrrolo[2,3-d]pyrimidine-6-carboxylic acid dimethylamide] | 74 nM | > 15000 nM | – | – | – | – | 288 to 338 nM | 105 to 188 nM | –

Second part, led by results:

IC50 (CDK4/cyclin D1) | IC50 (CDK1/cyclin B; […] CDK1/cyclin B) | SMILES | IC50 [1, 2] | IC50 [1, 3] | IC50 [1, 4] | IC50 [1, 5] | IC50 [1, 6] | IC50 [1, 7] | IC50 (CDK1/cyclin B; 0.25 nM CDK1/cyclin B)
< 4 nM | 7100 nM | CN(C)C(=O)c1cc2cnc(Nc3ccc(C(=O)N4CC5CNC(C5)C4)cn3)nc2n1C1CCCC1 (racemic) [Example 9, 7-Cyclopentyl-2-[5-(3,6-diaza-bicyclo[3.2.1]octane-3-carbonyl)-pyridin-2-ylamino]-7H-pyrrolo[2,3-d]pyrimidine-6-carboxylic acid dimethylamide] | 120 nM | 55 nM | – | – | – | – | –
15 to 21 nM | > 15000 nM | CN(C)C(=O)c1cc2cnc(Nc3ccc(C(=O)N4CC5CNCC5C4)cn3)nc2n1C1CCCC1 (centres unmarked) [Example 32, 7-cyclopentyl-N,N-dimethyl-2-(5-(octahydropyrrolo[3,4-c]pyrrole-2-carbonyl)pyridin-2-ylamino)-7H-pyrrolo[2,3-d]pyrimidine-6-carboxamide] | 212 nM | 131 nM | – | – | – | – | –
18 nM | > 15000 nM | CN(C)C(=O)c1cc2cnc(Nc3ccc(C(=O)N4C[C@@H]5C[C@]5(N)C4)cn3)nc2n1C1CCCC1 (stereo in doubt) [Example 15, 2-[5-((S)-1-Amino-3-aza-bicyclo[3.1.0]hexane-3-carbonyl)-pyridin-2-ylamino]-7-cyclopentyl-7H-pyrrolo[2,3-d]pyrimidine-6-carboxylic acid dimethylamide] | 264 nM | 43 nM | – | – | – | – | –
30 nM | > 15000 nM | CN(C)C(=O)c1cc2cnc(Nc3ccc(C(=O)N4CC5CNCC(C4)O5)cn3)nc2n1C1CCCC1 [Example 47, 7-Cyclopentyl-2-[5-(9-oxa-3,7-diaza-bicyclo[3.3.1]nonane-3-carbonyl)-pyridin-2-ylamino]-7H-pyrrolo[2,3-d]pyrimidine-6-carboxylic acid dimethylamide] | – | – | – | – | 352 nM | 315 nM | –
45 nM | > 15000 nM | CN(C)C(=O)c1cc2cnc(Nc3ccc(C(=O)N4C[C@H]5C[C@@H]4CN5)cn3)nc2n1C1CCCC1 [Example 49, 7-Cyclopentyl-2-[5-((R,R)-2,5-diaza-bicyclo[2.2.1]heptane-2-carbonyl)-pyridin-2-ylamino]-7H-pyrrolo[2,3-d]pyrimidine-6-carboxylic acid dimethylamide] | 52 to 431 nM | 44 to 231 nM | – | – | – | – | –
49 nM | > 15000 nM | CN(C)C(=O)c1cc2cnc(Nc3ccc(C(=O)N4CC5CC(C4)N(CC(F)(F)F)C5)cn3)nc2n1C1CCCC1 (centres unmarked) [Example 12, 7-Cyclopentyl-2-{5-[6-(2,2,2-trifluoro-ethyl)-3,6-diaza-bicyclo[3.2.1]octane-3-carbonyl]-pyridin-2-ylamino}-7H-pyrrolo[2,3-d]pyrimidine-6-carboxylic acid dimethylamide] | – | – | – | – | 724 nM | 255 nM | –
35 nM | > 15000 nM | CN(C)C(=O)c1cc2cnc(Nc3ccc(N4CCN5CCCCC5C4=O)cn3)nc2n1C1CCCCC1 (centres unmarked) [Example 100, 7-Cyclohexyl-2-[5-(1-oxo-octahydro-pyrido[1,2-a]pyrazin-2-yl)-pyridin-2-ylamino]-7H-pyrrolo[2,3-d]pyrimidine-6-carboxylic acid dimethylamide] | – | – | – | – | 218 nM | 188 nM | –
5 nM | 4140 nM | CN(C)C(=O)c1cc2cnc(Nc3ccc(C(=O)N4C[C@@H]5CN[C@@H](C5)C4)cn3)nc2n1C1CCCC1 [Example 10, 7-Cyclopentyl-2-[5-((1S,5S)-3,6-diaza-bicyclo[3.2.1]octane-3-carbonyl)-pyridin-2-ylamino]-7H-pyrrolo[2,3-d]pyrimidine-6-carboxylic acid dimethylamide] | 25 nM | 21 nM | – | – | – | – | –
8 to 16 nM | > 15000 nM | CN(C)C(=O)c1cc2cnc(Nc3ccc(C(=O)N4CCC5(CC4)CNC5)cn3)nc2n1C1CCCCCC1 [Example 5, 2-(5-(2,7-diazaspiro[3.5]nonane-7-carbonyl)pyridin-2-ylamino)-7-cycloheptyl-N,N-dimethyl-7H-pyrrolo[2,3-d]pyrimidine-6-carboxamide] | – | – | – | – | 117 nM | 115 nM | –
187 nM | > 15000 nM | CN(C)C(=O)c1cc2cnc(Nc3ccc(C(=O)N4CC5CCC(C4)C5(C)O)cn3)nc2n1C1CCCCCC1 (centres unmarked) [Example 6, 7-cycloheptyl-2-(5-(8-hydroxy-8-methyl-3-azabicyclo[3.2.1]octane-3-carbonyl)pyridin-2-ylamino)-N,N-dimethyl-7H-pyrrolo[2,3-d]pyrimidine-6-carboxamide] | – | – | – | – | 889 nM | 148 nM | –
